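Compound exposure: 48 hours, 5 concentrations, 96-well plates. GI50 = concentration required for 50% inhibition of growth.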 Calls of active or inactive are those of the source. Rule as the data show it: active = GI50 up to about 1.1 µM and inactive = higher.
Key:
Assay in all cases: NCI-60 cell line screen, 48 h
[1] = tested on: LOX IMVI
[2] = tested on: ACHN
[3] = tested on: HCT-116
[4] = tested on: HCC 2998
[5] = tested on: SK-MEL-2
[6] = tested on: SK-MEL-28
[7] = tested on: Malme-3M
[8] = tested on: SW-620
[9] = tested on: HOP-62
[10] = tested on: PC-3
[11] = tested on: NCI-H226
[12] = tested on: COLO 205
[13] = tested on: HCT-15
[14] = tested on: BT-549
[15] = tested on: MDA-MB-231
[16] = tested on: SF-295
[17] = tested on: M14
[18] = tested on: SK-MEL-5
[19] = tested on: NCI-H23

Compound | GI50 [1] | GI50 [2] | GI50 [3] | GI50 [4] | GI50 [5] | GI50 [6] | GI50 [7] | GI50 [8] | GI50 [9] | GI50 [10] | GI50 [11] | GI50 [12] | GI50 [13] | GI50 [14] | GI50 [15] | GI50 [16] | GI50 [17] | GI50 [18] | GI50 [19]
O=C1Nc2ccc(Br)cc2/C1=N/Nc1ccccc1[N+](=O)[O-] | 15.2 µM (inactive) | 3.83 µM (inactive) | 32.4 µM (inactive) | 13 µM (inactive) | 25.2 µM (inactive) | 19.7 µM (inactive) | 13.6 µM (inactive) | 25 µM (inactive) | 11.4 µM (inactive) | 15.8 µM (inactive) | 13.6 µM (inactive) | 12.1 µM (inactive) | 20.5 µM | 30.7 µM (inactive) | 1.92 µM (inactive) | 14 µM (inactive) | 13.9 µM (inactive) | 8.63 µM (inactive) | 3.56 µM (inactive)
C=C(C)C1CC[C@@](C)(O)[C@H](C#N)C1 (some centres not stated) | > 100 µM (inactive) | > 100 µM (inactive) | > 100 µM (inactive) | > 100 µM (inactive) | > 100 µM (inactive) | > 100 µM (inactive) | > 100 µM (inactive) | > 100 µM (inactive) | > 100 µM (inactive) | 71 µM (inactive) | > 100 µM (inactive) | > 100 µM (inactive) | > 100 µM | > 100 µM (inactive) | > 100 µM (inactive) | > 100 µM (inactive) | > 100 µM (inactive) | > 100 µM (inactive) | > 100 µM (inactive)
C[C@H]1C2Cc3cc(N)ccc3[C@@]1(C)CCN2CCc1ccccc1 | 20.2 µM (inactive) | 41.2 µM (inactive) | 41.8 µM (inactive) | 9.08 µM (inactive) | 50.7 µM (inactive) | > 100 µM (inactive) | 17.7 µM (inactive) | 64.7 µM (inactive) | 39.5 µM (inactive) | 22.6 µM (inactive) | 58.7 µM (inactive) | 16.8 µM (inactive) | 25.2 µM | > 100 µM (inactive) | > 100 µM (inactive) | 27.4 µM (inactive) | 20.9 µM (inactive) | 18.3 µM (inactive) | 32.8 µM (inactive)
CCOC(=O)C1=CN(Cc2ccccc2)C2ON=C(c3ccc(Cl)cc3)C2C1 (configuration not stated) | > 57.5 µM (inactive) | 31 µM (inactive) | 19.9 µM (inactive) | > 100 µM (inactive) | 15.2 µM (inactive) | > 56.2 µM (inactive) | > 55 µM (inactive) | > 52.5 µM (inactive) | > 55.5 µM (inactive) | > 36.6 µM (inactive) | > 56.2 µM (inactive) | > 51.3 µM (inactive) | > 32.4 µM | 32.4 µM (inactive) | 10.6 µM (inactive) | 45.6 µM (inactive) | > 54.7 µM (inactive) | 16.5 µM (inactive) | 35 µM (inactive)
S=C(N/N=C(/c1ccccc1)c1ccccn1)N(Cc1ccccn1)Cc1ccccn1 | 0.0908 µM (active) | 0.0418 µM (active) | < 0.01 µM (active) | 1.63 µM (inactive) | 1.28 µM (inactive) | 1.05 µM (active) | 0.0655 µM (active) | < 0.0277 µM (active) | 0.964 µM (active) | 0.0541 µM (active) | < 0.0488 µM (active) | < 0.0157 µM (active) | 0.102 µM | 0.207 µM (active) | < 0.0121 µM (active) | 0.367 µM (active) | 0.0323 µM (active) | 0.358 µM (active) | 0.108 µM (active)
C=CC(C)(C)NC(C(=O)N1CCC[C@H]1c1nc(-c2nc(C(=O)OCC=C(C)C)c(C)o2)c(C)o1)C(C)C (some centres not stated) | > 49.2 µM (inactive) | > 45.9 µM (inactive) | > 60.7 µM (inactive) | > 100 µM (inactive) | > 45.3 µM (inactive) | > 66.1 µM (inactive) | > 100 µM (inactive) | 45.8 µM (inactive) | > 100 µM (inactive) | > 64 µM (inactive) | > 48.8 µM (inactive) | 34 µM (inactive) | > 52.1 µM | > 100 µM (inactive) | 47 µM (inactive) | > 50 µM (inactive) | > 62.2 µM (inactive) | 47.1 µM (inactive) | > 100 µM (inactive)
O=C1/C(=C/c2ccc(O)c(CN3CCCCC3)c2)CCC/C1=C\c1ccc(O)c(CN2CCCCC2)c1 | 7.74 µM (inactive) | 6.31 µM (inactive) | 2.4 µM (inactive) | 5.64 µM (inactive) | 22.1 µM (inactive) | 13.3 µM (inactive) | 13.6 µM (inactive) | 5.52 µM (inactive) | 5.04 µM (inactive) | 7.05 µM (inactive) | 15.5 µM (inactive) | 2.55 µM (inactive) | 5.37 µM | 10.4 µM (inactive) | 5.69 µM (inactive) | 3.25 µM (inactive) | 16.1 µM (inactive) | 14 µM (inactive) | 5.52 µM (inactive)
NS(=O)(=O)c1ccc(NC(=O)c2ccc3nc4ccccc4c(Nc4ccc(S(N)(=O)=O)cc4)c3c2)cc1 | > 100 µM (inactive) | > 100 µM (inactive) | > 100 µM (inactive) | > 100 µM (inactive) | > 100 µM (inactive) | > 100 µM (inactive) | > 100 µM (inactive) | > 100 µM (inactive) | > 100 µM (inactive) | > 100 µM (inactive) | > 100 µM (inactive) | > 100 µM (inactive) | > 100 µM | > 100 µM (inactive) | > 100 µM (inactive) | > 100 µM (inactive) | > 100 µM (inactive) | > 100 µM (inactive) | > 100 µM (inactive)
Cn1c(C(O)C2(c3cccnc3)SCCCS2)cc2ccccc21 (configuration not stated) | > 100 µM (inactive) | > 100 µM (inactive) | > 100 µM (inactive) | > 100 µM (inactive) | > 100 µM (inactive) | > 100 µM (inactive) | > 100 µM (inactive) | > 100 µM (inactive) | > 100 µM (inactive) | 66.1 µM (inactive) | > 100 µM (inactive) | > 100 µM (inactive) | > 100 µM | 44.5 µM (inactive) | > 100 µM (inactive) | 56.9 µM (inactive) | 89.7 µM (inactive) | 37.6 µM (inactive) | 47.8 µM (inactive)
CC(=O)c1c2c(cc3c1CC1(C3)Cc3ccc4c(c3C1=O)CCC4)CCC2 (configuration not stated) | 14.8 µM (inactive) | 65.3 µM (inactive) | 10.8 µM (inactive) | 29.2 µM (inactive) | 34.8 µM (inactive) | 57.1 µM (inactive) | 30.6 µM (inactive) | 32.7 µM (inactive) | > 100 µM (inactive) | 16 µM (inactive) | > 100 µM (inactive) | 11 µM (inactive) | 16.1 µM | 62.4 µM (inactive) | 24.7 µM (inactive) | 93.3 µM (inactive) | 43 µM (inactive) | 13.4 µM (inactive) | 34.9 µM (inactive)
CC1CC[C@@]2(OC1)OC1C[C@H]3[C@@H]4CC=C5C[C@@H](OC6OC(CO)C(OC7OC(CO)C(O)C(O)C7O)C(O)C6OC6OC(C)C(O)C(O)C6O)CC[C@]5(C)[C@H]4CC[C@]3(C)C1[C@@H]2C (some centres not stated) | 0.462 µM (active) | 1.24 µM (inactive) | 0.838 µM (active) | 0.484 µM (active) | 0.759 µM (active) | 0.53 µM (active) | 0.634 µM (active) | 0.624 µM (active) | 0.593 µM (active) | 0.469 µM (active) | 0.873 µM (active) | 0.526 µM (active) | 3.52 µM | 0.463 µM (active) | 0.435 µM (active) | 1.94 µM (inactive) | 0.479 µM (active) | 0.543 µM (active) | 0.783 µM (active)
CC1=C(C(=O)OCCO[N+](=O)[O-])C(c2cccc([N+](=O)[O-])c2)C(C(=O)OC(C)C)=C(C)N1 (configuration not stated) | 16.9 µM (inactive) | 14.2 µM (inactive) | 10.5 µM (inactive) | 15.7 µM (inactive) | 13 µM (inactive) | 14.3 µM (inactive) | 17.7 µM (inactive) | 22.3 µM (inactive) | 16.6 µM (inactive) | 4.25 µM (inactive) | 8.95 µM (inactive) | 10.7 µM (inactive) | 14.1 µM | 14 µM (inactive) | 13.3 µM (inactive) | 11.4 µM (inactive) | 16 µM (inactive) | 12.8 µM (inactive) | 17.6 µM (inactive)
COc1ccc(CNC2=N/C(=C\c3ccccc3Cl)C(=O)N2C)cc1 | 20.1 µM (inactive) | 29.6 µM (inactive) | 18.4 µM (inactive) | 21.8 µM (inactive) | 19.3 µM (inactive) | 33 µM (inactive) | 33 µM (inactive) | 19.5 µM (inactive) | 47.8 µM (inactive) | 28.1 µM (inactive) | 49.2 µM (inactive) | 24.9 µM (inactive) | 28.4 µM | 36.8 µM (inactive) | 26.4 µM (inactive) | 31.7 µM (inactive) | 17.9 µM (inactive) | 19.9 µM (inactive) | –
Brc1cccc(Nc2ncnc3sc4c(c23)CCC2(C4)OCCO2)c1 | 18.6 µM (inactive) | 4.68 µM (inactive) | 27.2 µM (inactive) | 23.7 µM (inactive) | 33 µM (inactive) | – | 39.2 µM (inactive) | 0.0203 µM (active) | 52.4 µM (inactive) | 33.7 µM (inactive) | 18.6 µM (inactive) | 18 µM (inactive) | 25.4 µM | 27.5 µM (inactive) | 87.1 µM (inactive) | 32.5 µM (inactive) | 31.1 µM (inactive) | 15.8 µM (inactive) | 29.8 µM (inactive)
Cc1ccc(NCc2nnc3c(-c4ccccc4)nc4ccccc4n23)cc1 | 23.5 µM (inactive) | 23.9 µM (inactive) | 21.5 µM (inactive) | 44.6 µM (inactive) | 24.8 µM (inactive) | 64 µM (inactive) | 37.2 µM (inactive) | 39.3 µM (inactive) | 46.1 µM (inactive) | 19.1 µM (inactive) | 44 µM (inactive) | 32.8 µM (inactive) | 38.5 µM | 37.4 µM (inactive) | 24.5 µM (inactive) | 33.7 µM (inactive) | 37.6 µM (inactive) | 14.4 µM (inactive) | –
